Patent publication US20250282818A1, “SYRBACTIN MACROLACTAMS AND UNNATURAL ANALOGS AS PROTEASOME INHIBITORS FOR THE TREATMENT OF MULTIPLE MYELOMA AND CHEMOENZYMATIC SYNTHESIS THEREOF” (UNIVERSITY OF FLORIDA RESEARCH FOUNDATION,INCORPORATED, priority 2022, published 2025)
“Also recorded” adds a separate entry of the source.

Key:
RPMI 8226 cells [1] = experiment: RPMI 8226 cytotoxicity EC50 measurements (WST-1); format: cell-based, human; conditions: RPMI 8226, 48 hours
Description: RPMI 8226 cells were seeded in a 96-well plate (20,000 cells/well) in cell culture media supplemented with indicated compounds (1,000× stock in DMSO) or DMSO and cultured for 48 hours. Toxicity was determined using the WST-1 assay (Roche) according to the protocol of the manufacturer. (n=3)
Cytotoxicity of phenyl cepafungin (50) and hybrid analog (S39) in RPMI 8226 RPMI 8226 cells were seeded in a 96-well plate (20,000 cells/well) in cell culture media supplemented with indicated compounds (1,000× stock in DMSO) or DMSO and cultured for 48 hours. Toxicity was determined using the WST-1 assay (Roche) according to the protocol of the manufacturer. (n=3)

proteasome subunit β5 = molecular target: T1, proteasome subunit β5 (Homo sapiens, UniProt P28074); experiment: Proteasome inhibition IC50 measurements in RPMI 8226 cells, substrate Suc-LLVY-AMC (β5); format: cell-based; conditions: β5, RPMI 8226 cells
T1 construct: Cells were then collected and lysed; endogenous in cells; host or cells: RPMI 8226
Source text: Our preliminary series of analogs (FIG. 3), including the natural product glidobactin A (2), were synthesized by largely the same route (FIG. 2).^13 Desoxycepafungin (38) was synthesized from Boc-Lys(Boc)-OH to assess the role of the macrocycle hydroxylation in 1 towards proteasome inhibition. The saturated cepafungin analog 39 was designed to address the possible role of rigidity in the tail fragment induced by the diene seen in many natural cepafungins and glidobactins. An analog bearing unsaturation at its macrocyclic lysine was envisioned to provide a head-to-head comparison between the cepafungin and syringolin A (4) macrocyclic core. […] Proteasome subunit β5 IC50 values were determined in situ in RPMI 8226 cells (FIG. 3). In close agreement with prior measurement of β5 IC50 for natural 1 and 2 in purified yeast proteasome,^8 in our hands the additional branching methyl in 1 indeed leads to ca. 5-fold improved IC50 compared to 2 in RPMI 8226 cells. […] Likewise, saturation of the fatty acid fragment in 39 causes ca. 14-fold decrease in β5 inhibition. This preliminary series of analogs highlighted that the macrocyclic hydroxylation, fatty acid unsaturation, and terminal lipid functionality are critical for potent proteasome inhibitory activity.
Cellular assays were performed with human multiple myeloma cell line RPMI 8226. First, relative inhibition of proteasome subunits β5 and β2 for all analogs and the natural product was measured at 30 nM compound concentration. Following incubation of the analogs in cell culture for 6 hours, cells were lysed and fluorogenic subunit-specific peptide substrates Suc-LLVY-AMC (β5) or Ac-RLR-AMC (β2) were incubated with the lysates, and fluorescence readings provided relative proteasome activity levels with respect to DMSO (FIG. 6A). Next, cytotoxicity screening was performed at 30 nM and 100 nM concentrations for better coverage of dynamic range (FIG. 6B). […] Therefore, the improved cytotoxicity of phenyl cepafungin 50 likely results from a more pronounced loss of β5 function in RPMI 8226 cells. This drastic increase in proteasome inhibition may be due to pi-stacking of the lipid tail phenyl ring with the β6 subunit residues Tyr106 and/or Tyr5. The β2 subunit-bound natural product has residues Tyr102 and Phe103 on the adjacent β3 subunit oriented further away from the terminal lipid methyl groups, and presumably would not facilitate pi-stacking to the extent possible at the adjacent β6 subunit (see FIG. 4, FIG. 9). […]
RPMI 8226 cells were seeded in a 6-well plate (1,000,000 cells/well) in cell culture media supplemented with indicated compounds (1,000× stock in DMSO) or DMSO and cultured for 6 hours. […] The plates were incubated at 37° C. for one hour and fluorescence was read at A360ex/A460em. […]

RPMI 8226 cells [2] = experiment: RPMI8226 cytotoxicity screening (WST-1); format: cell-based, human; conditions: for cytotoxicity / activity compared with the natural product, in words: 30 nM and 100 nM compound concentration; for potency compared with parent natural product 1 in screening (FIG. 6A, 6B): 30 nM and 100 nM, cytotoxicities track with proteasome inhibition at 30 nM
Description: Cellular assays were performed with human multiple myeloma cell line RPMI 8226. First, relative inhibition of proteasome subunits β5 and β2 for all analogs and the natural product was measured at 30 nM compound concentration. Following incubation of the analogs in cell culture for 6 hours, cells were lysed and fluorogenic subunit-specific peptide substrates Suc-LLVY-AMC (β5) or Ac-RLR-AMC (β2) were incubated with the lysates, and fluorescence readings provided relative proteasome activity levels with respect to DMSO (FIG. 6A). Next, cytotoxicity screening was performed at 30 nM and 100 nM concentrations for better coverage of dynamic range (FIG. 6B). […] Therefore, the improved cytotoxicity of phenyl cepafungin 50 likely results from a more pronounced loss of β5 function in RPMI 8226 cells. This drastic increase in proteasome inhibition may be due to pi-stacking of the lipid tail phenyl ring with the β6 subunit residues Tyr106 and/or Tyr5. The β2 subunit-bound natural product has residues Tyr102 and Phe103 on the adjacent β3 subunit oriented further away from the terminal lipid methyl groups, and presumably would not facilitate pi-stacking to the extent possible at the adjacent β6 subunit (see FIG. 4, FIG. 9). […] These combined modifications were made in hopes that the effects of both substitutions would be additive.
[…] Toxicity was determined using the WST-1 assay (Roche) according to the protocol of the manufacturer. (n=3)

Compound | cytotoxicity / activity compared with the natural product, in words (RPMI 8226 cells [2]) | also measured
CC(C)[C@H]1/C=C/C(=O)NCC[C@H](O)C[C@H](NC(=O)[C@@H](NC(=O)/C=C/C=C/CCCCCc2ccccc2)[C@@H](C)O)C(=O)N1 [S39, (2E,4E)-N-((2S,3R)-3-hydroxy-1-(((5S,8S,10S,E)-10-hydroxy-5-isopropyl-2,7-dioxo-1,6-diazacyclododec-3-en-8-yl)amino)-1-oxobutan-2-yl)-10-phenyldeca-2,4-dienamide] |  | EC50 (RPMI 8226 cells [1]; Homo sapiens, WST-1): 4.5 nM; cytotoxicity EC50 compared with natural product and 50, in words (RPMI 8226 cells [1]): significantly more potent than the natural product; also recorded: its cytotoxicity did not surpass that of 50
CC(C)CCCCC/C=C/C=C/C(=O)N[C@H](C(=O)N[C@H]1CCCCNC(=O)/C=C/[C@H](C)NC1=O)[C@@H](C)O [compound 38, Desoxycepafungin] |  | fold higher IC50 than 1 (proteasome subunit β5): ca. 11 fold
CC(C)CCCCC/C=C/C=C/C(=O)N[C@H](C(=O)N[C@H]1C[C@H](O)CCNC(=O)/C=C/[C@H](C)NC1=O)[C@@H](C)O [compound 40, (2E,4E)-N-((2S,3R)-3-hydroxy-1-(((5S,8S,10R,E)-10-hydroxy-5-methyl-2,7-dioxo-1,6-diazacyclododec-3-en-8-yl)amino)-1-oxobutan-2-yl)-11-methyldodeca-2,4-dienamide] | nearly inactive at both concentrations | 
CC(C)CCCCC/C=C/C=C/C(=O)N[C@H](C(=O)N[C@@H]1C(=O)N[C@@H](C)/C=C/C(=O)NCCC[C@@H]1O)[C@@H](C)O [compound 41, (2E,4E)-N-((2S,3R)-3-hydroxy-1-(((5S,8S,9S,E)-9-hydroxy-5-methyl-2,7-dioxo-1,6-diazacyclododec-3-en-8-yl)amino)-1-oxobutan-2-yl)-11-methyldodeca-2,4-dienamide] | nearly inactive at both concentrations | 
CC(C)CCCCC/C=C/C=C/C(=O)N[C@H](C(=O)N[C@H]1CC(=O)CCNC(=O)/C=C/[C@H](C)NC1=O)[C@@H](C)O [compound 42, (2E,4E)-N-((2S,3R)-3-hydroxy-1-(((5S,8S,E)-5-methyl-2,7,10-trioxo-1,6-diazacyclododec-3-en-8-yl)amino)-1-oxobutan-2-yl)-11-methyldodeca-2,4-dienamide] | potency approaching that of the natural product | 
CC(C)CCCCC/C=C/C=C/C(=O)N[C@H](C(=O)N[C@H]1C[C@@H](O)CCNC(=O)/C=C/[C@H](C(C)C)NC1=O)[C@@H](C)O [compound 43, (2E,4E)-N-((2S,3R)-3-hydroxy-1-(((5S,8S,10S,E)-10-hydroxy-5-isopropyl-2,7-dioxo-1,6-diazacyclododec-3-en-8-yl)amino)-1-oxobutan-2-yl)-11-methyldodeca-2,4-dienamide] | slightly greater cytotoxicity than the natural product | potency compared with parent natural product 1 in screening (FIG. 6A, 6B) (RPMI 8226 cells [2]): more potent than the parent natural product 1
CC[C@H](NC(=O)/C=C/C=C/CCCCCC(C)C)C(=O)N[C@H]1C[C@@H](O)CCNC(=O)/C=C/[C@H](C)NC1=O [compound 44, (2E,4E)-N—((S)-1-(((5S,8S,10S,E)-10-hydroxy-5-methyl-2,7-dioxo-1,6-diazacyclododec-3-en-8-yl)amino)-1-oxobutan-2-yl)-11-methyldodeca-2,4-dienamide] | Thr residue next to the cepafungin macrocycle appears to be favored over the ethyl sidechain of desoxy-Thr analog 44 | 
CC(C)CCCCC/C=C/C=C/C(=O)N[C@H](C(=O)N[C@H]1C[C@@H](O)CCNC(=O)/C=C/[C@H](C)NC1=O)[C@H](O)c1ccccc1 [compound 45, (2E,4E)-N-((1R,2S)-1-hydroxy-3-(((5S,8S,10S,E)-10-hydroxy-5-methyl-2,7-dioxo-1,6-diazacyclododec-3-en-8-yl)amino)-3-oxo-1-phenylpropan-2-yl)-11-methyldodeca-2,4-dienamide] | substantially weaker | 
CC(C)CCCCC/C=C/C=C/C(=O)N[C@H](C(=O)N[C@H]1C[C@@H](O)CCNC(=O)/C=C/[C@H](C)NC1=O)[C@H](O)C(C)C [compound 46, (2E,4E)-N-((2S,3R)-3-hydroxy-1-(((5S,8S,10S,E)-10-hydroxy-5-methyl-2,7-dioxo-1,6-diazacyclododec-3-en-8-yl)amino)-4-methyl-1-oxopentan-2-yl)-11-methyldodeca-2,4-dienamide] | approached the potency of the natural product | 
C[C@H]1/C=C/C(=O)NCC[C@H](O)C[C@H](NC(=O)[C@@H](NC(=O)/C=C/C=C/CCCCCC(C)(C)C)[C@@H](C)O)C(=O)N1 [compound 47, (2E,4E)-N-((2S,3R)-3-hydroxy-1-(((5S,8S,10S,E)-10-hydroxy-5-methyl-2,7-dioxo-1,6-diazacyclododec-3-en-8-yl)amino)-1-oxobutan-2-yl)-11,11-dimethyldodeca-2,4-dienamide] | improved cytotoxicity relative to 1 | potency compared with parent natural product 1 in screening (FIG. 6A, 6B) (RPMI 8226 cells [2]): more potent than the parent natural product 1
C[C@H]1/C=C/C(=O)NCC[C@H](O)C[C@H](NC(=O)[C@@H](NC(=O)/C=C/C=C/CCCCCC2CCCC2)[C@@H](C)O)C(=O)N1 [compound 48, (2E,4E)-10-cyclopentyl-N-((2S,3R)-3-hydroxy-1-(((5S,8S,10S,E)-10-hydroxy-5-methyl-2,7-dioxo-1,6-diazacyclododec-3-en-8-yl)amino)-1-oxobutan-2-yl)deca-2,4-dienamide] | improved cytotoxicity relative to 1 | potency compared with parent natural product 1 in screening (FIG. 6A, 6B) (RPMI 8226 cells [2]): more potent than the parent natural product 1
C[C@H]1/C=C/C(=O)NCC[C@H](O)C[C@H](NC(=O)[C@@H](NC(=O)/C=C/C=C/CCCCCC2CCCCC2)[C@@H](C)O)C(=O)N1 [compound 49, (2E,4E)-10-cyclohexyl-N-((2S,3R)-3-hydroxy-1-(((5S,8S,10S,E)-10-hydroxy-5-methyl-2,7-dioxo-1,6-diazacyclododec-3-en-8-yl)amino)-1-oxobutan-2-yl)deca-2,4-dienamide] | roughly similar activity as the natural product | 
C[C@H]1/C=C/C(=O)NCC[C@H](O)C[C@H](NC(=O)[C@@H](NC(=O)/C=C/C=C/CCCCCC(F)(F)F)[C@@H](C)O)C(=O)N1 [compound 51, (2E,4E)-11,11,11-trifluoro-N-((2S,3R)-3-hydroxy-1-(((5S,8S,10S,E)-10-hydroxy-5-methyl-2,7-dioxo-1,6-diazacyclododec-3-en-8-yl)amino)-1-oxobutan-2-yl)undeca-2,4-dienamide] | essentially inactive at both concentrations tested | 
